Results reported in patent US20240027428A1, “METHOD FOR BUILDING CO-CULTURE MODEL FOR CACO-2/RAW-264.7 CELLS INDUCED BY LIPOPOLYSACCHARIDES AND APPLICATION OF CO-CULTURE MODEL” (ZHEJIANG UNIVERSITY OF TECHNOLOGY, priority 2022, published 2024).

Legend:
Caco-2 cells [1] = test: CCK-8 cytotoxicity test, viability of Caco-2 cells; assay type: cell-based; conditions: Caco-2, 24 h, 0.2 mg/mL and below (P>0.05)
Experimental: Cytotoxicity tests: according to manufacturer's instructions, cell viability was determined with a CCK-8 (Nanjing Jiancheng Biological Engineering Research Institute, Nanjing, China). In short, Caco-2 cells were treated with [MUT] liposomes at concentrations of 0.1 mg/mL, 0.2 mg/mL, 0.3 mg/mL, and 0.4 mg/mL, incubated for 24 h, then washed with PBS once, and added with a CCK-8 solution. Incubation was performed at 37° C. for 4 h, and an optical density at 450 nm was determined. […] NL and [MUT] on the viability of Caco-2 cells were inspected with a CCK-8 method. The Caco-2 cells were inoculated onto a 96-well plate having each well of 100 μL at a density of 1×10^5 cells/mL, and 200 μL of PBS was added to a peripheral well of the 96-well plate, to provide a humidity environment. […] After incubation for 24 h, 20 μL of a CCK-8 solution was added to each well, incubation was performed in an incubator at 37° C. for 1 h, and then an optical density (OD) at a wavelength of 490 nm was detected with a microplate reader and was calculated according to the following formula: Cell viability (%)=ODtreatment well/ODcontrol well×100% where the ODtreatment well represented an optical density of cells after addition of drugs, and the ODcontrol well represented an optical density of cells in a blank control.

Caco-2 cells [2] = test: Effect of time on uptake in a co-culture model; assay type: in vitro ADME; conditions: 0.2 mg/mL, 0-6 h
Experimental: (§1) Cell co-culture: Caco-2 cells were inoculated onto a 6-well Transwell plate at a density of 1×10^5 cells/well. A culture medium was changed once every 1-2 days in 21 consecutive days. RAW-264.7 cells were inoculated onto a side wall of a substrate at a density of 1×10^5 cells/well, and were cultured in 5% carbon dioxide at 37° C. for 48 h, to promote obvious adhesion of the cells to the side wall of the substrate. After 48 h, the culture medium was replaced with a serum-free DMEM. It was intended to evaluate the absorption of C3G liposomes in a co-culture model.
Effect of time on uptake in a co-culture model: 0.2 mg/mL of a C3G and C3G NL solution was prepared with a DMEM, 0.1 ml of a sample solution was added on an AP side, 0.6 mL of a DMEM was added on an BL side, culture was performed in an incubator at 37° C. for 1 h, 2 h, 3 h, 4 h, 5 h, and 6 h, three wells were provided at each time point, a drug-containing buffer solution was discarded after incubation, precooled PBS was added to stop cellular uptake, and cell monolayers were quickly washed for three times. […] A cell suspension was dissolved with methanol and centrifuged at 15,000 rpm for 20 min, then a supernatant was taken, and the content of C3G was determined with HPLC.

[3] = test system: inflammatory factors IL-6, IL-8, IL-1β, and TNF-α; test: Content of inflammatory factors in LPS-induced Caco-2/RAW-264.7 co-culture model (ELISA); assay type: cell-based
Experimental: as §1
Determination of the content of inflammatory factors in a co-culture model: levels of inflammatory factors IL-6, IL-8, IL-1β, and TNF-α in a supernatant of Caco-2 cells in an LPS-induced co-culture model were determined with an ELISA kit.

Caco-2 cells [4] = test: Effect of concentration on transport in a co-culture model; assay type: in vitro ADME; conditions: at 1 h; not saturated
Experimental: as §1
Effect of concentration on uptake in a co-culture model: 0.02 mg/ml, 0.04 mg/ml, […], 0.08 mg/ml, and 0.1 mg/ml of C3G and C3G NL solutions were prepared, transport from an AP side to a BL side and transport from the BL side to the AP side were evaluated, 0.1 ml of a sample was added on the AP side, 0.6 ml of a sample was added on the BL side, three wells were provided, […], a culture medium was discarded after culture, and uptake was stopped using an HBSS. The content of the sample on the BL side was determined with HPLC.

Caco-2 cells [5] = test: Effect of temperature on uptake in a co-culture model; assay type: in vitro ADME; conditions: 4° C. to 37° C. (P<0.0001)
Experimental: as §1
Effect of temperature on uptake in a co-culture model: 0.2 mg/mL of a C3G and C3G NL solution was prepared with an HBSS, 0.1 ml of a sample solution was added on an AP side, 0.6 mL of an HBSS was added on an BL side, cells were cultured in environments at 37° C. and 4° C. for 2 h, three wells were provided at each temperature, a culture medium was discarded after culture, and uptake was stopped using an HBSS. The content of a sample on the BL side was determined with HPLC.

Caco-2 cells [6] = test: Effect of an endocytosis inhibitor on uptake/transport in a co-culture model; assay type: in vitro ADME; conditions: β-CD, chlorpromazine (CPZ), cytochalasin D (P>0.05)
Experimental: as §1
Effect of an endocytosis inhibitor on uptake in a co-culture model: 0.2 mg/mL of a C3G and C3G NL solution was prepared with an HBSS, 0.1 ml of a sample solution was added on an AP side, 0.6 mL of an HBSS was added on a BL side, an MEM, 10 mmol/L ([…]) of β-CD,10 μg/mL of chlorpromazine, 2 μmol/L (1 μg/ml) of cytochalasin D (0.1 ml) were added and sucked out after 30 min, cells were cultured in an environment at 37° C. for 1 h, three wells were provided, a culture medium was discarded after culture, and uptake was stopped using an HBSS. The content of a sample was determined with HPLC, and Papp was calculated.

Caco-2 cells [7] = test: Transport tests for Lucifer yellow across Caco-2 monolayer in Transwell; assay type: in vitro ADME; conditions: 20 μg/mL Lucifer yellow, AP to BL, Caco-2 cultured 21 days
Experimental: Drawing of a standard curve for Lucifer yellow: 0.005 μg/mL, 0.01 μg/mL, 0.025 μg/mL, 0.05 μg/mL, 0.1 μg/mL, and 0.25 μg/mL of standard solutions for Lucifer yellow were prepared, the fluorescence intensities (an excitation wavelength: 427 nm, and an emission wavelength: 536 nm) of the standard solutions for Lucifer yellow were measured with a fluorescence spectrophotometer, and linear regression was performed with the fluorescence intensity as an ordinate and the concentration ([…]) as an abscissa. A standard curve was drawn.
Transport tests for Lucifer yellow: Caco-2 cells grew to 21 days in a Transwell, and then a culture medium was sucked and discarded. A preheated HBSS was added to both an AP side and a BL side for cleaning twice and was sucked and discarded, and then a preheated HBSS was added to perform culture under the conditions of 37° C. and 5% CO2 for 20 min. […] Under the condition of Ex=427 nm and Em=536 nm, the fluorescence intensity was measured according to a standard curve and a transport formula. A concentration and permeability coefficient of a transport solution for the Lucifer yellow CH on the BL side were calculated. […]

time of maximum uptake amount in Caco-2 cells (Caco-2 cells [2])	uptake amounts in Caco-2 cells with increase of temperature (Caco-2 cells [5])	transport amounts after addition of endocytosis inhibitor compared with blank group (Caco-2 cells [6])	Papp (apparent permeability coefficient) (Caco-2 cells [7])	Compound	change of cell viability compared with blank group (Caco-2 cells [1])	production of inflammatory factors after pretreatment [3]	transport amounts in Caco-2 cells with concentration (Caco-2 cells [4])
2 h	increased significantly	no significant changes	–	OC[C@H]1O[C@@H](Oc2cc3c(O)cc(O)cc3[o+]c2-c2ccc(O)c(O)c2)[C@H](O)[C@@H](O)[C@@H]1O [C3G, Cyanidin-3-glucoside]	did not change significantly	reduced in a dose-dependent manner	increased with the increase of concentration
–	–	–	0.0303 ×10⁻⁶ cm/s	Lucifer yellow	–	–	–
